{
  "source": "the kinase profiling compilation of Christmann-Franck et al. (2016)",
  "assay_in_all_cases": "KINOMEscan competition binding",
  "conditions_in_all_cases": "compound 10.0 µM",
  "key": {"[1]": {"tested_on": "ABL1 (human), P00519 [H396P]"}, "[2]": {"target": "ADCK4 (human) (UniProt Q96D53)"}, "[3]": {"target": "AXL (human) (UniProt P30530)"}, "[4]": {"target": "CAMK2G (human) (UniProt Q13555)"}, "[5]": {"target": "CDC42BPA (human) (UniProt Q5VT25)"}, "[6]": {"target": "CDK11A (human) (UniProt Q9UQ88)"}, "[7]": {"target": "CDK9 (human) (UniProt P50750)"}, "[8]": {"target": "CSNK1G2 (human) (UniProt P78368)"}, "[9]": {"target": "DDR2 (human) (UniProt Q16832)"}, "[10]": {"tested_on": "EGFR (human), P00533 [752-759 del]"}, "[11]": {"tested_on": "EGFR (human), P00533 [L861Q]"}, "[12]": {"target": "EPHA1 (human) (UniProt P21709)"}, "[13]": {"target": "EPHA5 (human) (UniProt P54756)"}, "[14]": {"target": "EPHA6 (human) (UniProt Q9UF33)", "sequence (Q9UF33 whole entry, looked up)": "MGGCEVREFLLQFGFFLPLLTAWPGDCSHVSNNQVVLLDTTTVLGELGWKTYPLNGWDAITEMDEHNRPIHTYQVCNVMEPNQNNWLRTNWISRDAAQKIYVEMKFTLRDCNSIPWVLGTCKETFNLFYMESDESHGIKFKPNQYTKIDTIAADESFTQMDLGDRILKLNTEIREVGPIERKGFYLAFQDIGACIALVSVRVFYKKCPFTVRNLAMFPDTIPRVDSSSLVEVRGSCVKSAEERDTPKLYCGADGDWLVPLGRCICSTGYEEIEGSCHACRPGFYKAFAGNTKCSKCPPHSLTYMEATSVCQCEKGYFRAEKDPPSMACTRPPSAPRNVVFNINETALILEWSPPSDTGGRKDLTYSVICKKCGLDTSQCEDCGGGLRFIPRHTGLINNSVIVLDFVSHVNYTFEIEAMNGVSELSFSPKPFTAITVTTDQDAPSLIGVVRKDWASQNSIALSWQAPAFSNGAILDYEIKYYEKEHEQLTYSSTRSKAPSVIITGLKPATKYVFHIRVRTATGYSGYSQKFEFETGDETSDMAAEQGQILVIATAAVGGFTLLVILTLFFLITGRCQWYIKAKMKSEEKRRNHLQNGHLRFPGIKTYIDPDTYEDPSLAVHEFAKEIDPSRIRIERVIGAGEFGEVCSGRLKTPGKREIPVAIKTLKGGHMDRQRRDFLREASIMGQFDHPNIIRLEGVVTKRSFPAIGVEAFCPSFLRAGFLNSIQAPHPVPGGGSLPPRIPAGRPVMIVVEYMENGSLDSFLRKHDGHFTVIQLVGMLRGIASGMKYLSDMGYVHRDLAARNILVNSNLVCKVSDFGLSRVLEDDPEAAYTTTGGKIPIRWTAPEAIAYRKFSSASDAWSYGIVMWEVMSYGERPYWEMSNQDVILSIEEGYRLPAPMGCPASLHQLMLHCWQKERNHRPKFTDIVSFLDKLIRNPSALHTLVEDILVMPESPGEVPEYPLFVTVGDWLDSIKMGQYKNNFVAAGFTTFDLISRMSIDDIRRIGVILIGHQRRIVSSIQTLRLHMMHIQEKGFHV"}, "[15]": {"target": "EPHB2 (human) (UniProt P29323)"}, "[16]": {"target": "FER (human) (UniProt P16591)", "sequence (P16591 whole entry, looked up)": "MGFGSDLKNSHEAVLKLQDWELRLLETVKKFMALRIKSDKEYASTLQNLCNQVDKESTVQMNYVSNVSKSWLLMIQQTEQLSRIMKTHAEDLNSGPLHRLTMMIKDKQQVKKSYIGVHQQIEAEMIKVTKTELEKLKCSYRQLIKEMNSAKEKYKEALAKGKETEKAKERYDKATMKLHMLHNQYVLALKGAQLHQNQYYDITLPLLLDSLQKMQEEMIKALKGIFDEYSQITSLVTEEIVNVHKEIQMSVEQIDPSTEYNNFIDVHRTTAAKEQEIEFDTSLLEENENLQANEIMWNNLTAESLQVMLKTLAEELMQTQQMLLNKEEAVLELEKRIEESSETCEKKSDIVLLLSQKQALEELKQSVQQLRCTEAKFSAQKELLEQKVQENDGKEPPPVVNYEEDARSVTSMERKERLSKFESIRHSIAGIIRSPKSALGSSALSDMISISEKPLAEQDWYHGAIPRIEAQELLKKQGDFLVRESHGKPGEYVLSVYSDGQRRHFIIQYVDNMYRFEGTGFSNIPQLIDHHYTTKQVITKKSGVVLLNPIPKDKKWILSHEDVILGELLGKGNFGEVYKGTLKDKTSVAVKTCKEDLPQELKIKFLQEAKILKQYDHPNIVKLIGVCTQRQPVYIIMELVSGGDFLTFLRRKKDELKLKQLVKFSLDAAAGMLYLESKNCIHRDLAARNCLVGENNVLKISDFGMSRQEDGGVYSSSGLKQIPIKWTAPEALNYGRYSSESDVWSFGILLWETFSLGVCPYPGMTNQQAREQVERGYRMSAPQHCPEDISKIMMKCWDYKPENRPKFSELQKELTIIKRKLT"}, "[17]": {"target": "FGFR2 (human) (UniProt P21802)", "sequence (P21802 whole entry, looked up)": "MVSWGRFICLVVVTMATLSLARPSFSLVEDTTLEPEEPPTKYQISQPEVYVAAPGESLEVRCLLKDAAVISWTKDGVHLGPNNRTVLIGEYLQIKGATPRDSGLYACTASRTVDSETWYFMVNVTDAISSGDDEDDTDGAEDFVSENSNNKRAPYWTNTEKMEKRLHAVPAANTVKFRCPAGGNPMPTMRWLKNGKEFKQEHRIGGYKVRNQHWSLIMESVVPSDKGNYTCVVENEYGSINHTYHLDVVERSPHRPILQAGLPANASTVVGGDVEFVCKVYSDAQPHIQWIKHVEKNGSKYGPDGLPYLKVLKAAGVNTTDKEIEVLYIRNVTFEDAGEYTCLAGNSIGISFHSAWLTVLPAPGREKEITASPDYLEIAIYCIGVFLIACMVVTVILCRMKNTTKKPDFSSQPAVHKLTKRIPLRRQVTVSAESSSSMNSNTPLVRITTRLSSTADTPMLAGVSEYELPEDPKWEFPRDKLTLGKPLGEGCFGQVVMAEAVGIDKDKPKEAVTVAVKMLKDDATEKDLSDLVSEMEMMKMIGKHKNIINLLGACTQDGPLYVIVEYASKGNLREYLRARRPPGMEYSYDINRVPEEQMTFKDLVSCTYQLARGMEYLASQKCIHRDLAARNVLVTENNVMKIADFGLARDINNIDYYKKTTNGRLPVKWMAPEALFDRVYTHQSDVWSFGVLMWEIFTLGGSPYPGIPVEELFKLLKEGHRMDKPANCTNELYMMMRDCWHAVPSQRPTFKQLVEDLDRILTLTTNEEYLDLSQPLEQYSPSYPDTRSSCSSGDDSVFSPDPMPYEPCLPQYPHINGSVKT"}, "[18]": {"target": "GSK3B (human) (UniProt P49841)"}, "[19]": {"target": "MAP2K2 (human) (UniProt P36507)"}, "[20]": {"target": "MAP3K10 (human) (UniProt Q02779)"}, "[21]": {"target": "MAP3K11 (human) (UniProt Q16584)"}, "[22]": {"target": "MAP3K12 (human) (UniProt Q12852)"}, "[23]": {"target": "MAPKAPK2 (human) (UniProt P49137)"}, "[24]": {"target": "MARK1 (human) (UniProt Q9P0L2)"}, "[25]": {"target": "MARK3 (human) (UniProt P27448)"}, "[26]": {"target": "MYO3B (human) (UniProt Q8WXR4)"}, "[27]": {"target": "NEK1 (human) (UniProt Q96PY6)"}, "[28]": {"target": "NEK5 (human) (UniProt Q6P3R8)"}, "[29]": {"target": "NEK7 (human) (UniProt Q8TDX7)", "sequence (Q8TDX7 whole entry, looked up)": "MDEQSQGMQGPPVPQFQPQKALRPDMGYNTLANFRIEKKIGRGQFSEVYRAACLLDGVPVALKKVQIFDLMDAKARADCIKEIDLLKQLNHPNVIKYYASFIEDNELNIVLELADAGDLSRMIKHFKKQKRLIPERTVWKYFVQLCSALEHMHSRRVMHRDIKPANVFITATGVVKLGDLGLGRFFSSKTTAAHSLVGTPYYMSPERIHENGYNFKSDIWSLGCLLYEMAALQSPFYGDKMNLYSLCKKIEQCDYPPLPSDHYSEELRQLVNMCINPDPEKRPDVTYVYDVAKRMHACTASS"}, "[30]": {"target": "NEK9 (human) (UniProt Q8TD19)"}, "[31]": {"target": "NTRK3 (human) (UniProt Q16288)"}, "[32]": {"target": "PAK1 (human) (UniProt Q13153)"}, "[33]": {"target": "PAK2 (human) (UniProt Q13177)", "sequence (Q13177 whole entry, looked up)": "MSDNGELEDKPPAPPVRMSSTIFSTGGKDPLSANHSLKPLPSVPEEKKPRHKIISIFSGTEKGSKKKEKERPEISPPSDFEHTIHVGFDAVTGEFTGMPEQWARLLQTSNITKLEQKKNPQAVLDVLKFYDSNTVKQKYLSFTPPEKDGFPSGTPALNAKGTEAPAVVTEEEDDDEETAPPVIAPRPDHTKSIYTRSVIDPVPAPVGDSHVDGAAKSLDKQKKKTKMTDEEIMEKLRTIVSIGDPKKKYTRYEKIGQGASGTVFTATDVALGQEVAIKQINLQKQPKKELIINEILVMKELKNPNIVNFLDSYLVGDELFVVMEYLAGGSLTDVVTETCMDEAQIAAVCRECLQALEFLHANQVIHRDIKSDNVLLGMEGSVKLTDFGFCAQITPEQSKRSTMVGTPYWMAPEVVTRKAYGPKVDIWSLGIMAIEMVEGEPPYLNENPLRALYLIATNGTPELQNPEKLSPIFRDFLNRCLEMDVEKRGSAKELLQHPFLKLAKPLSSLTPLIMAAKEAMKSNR"}, "[34]": {"target": "PAK4 (human) (UniProt O96013)"}, "[35]": {"target": "PIK3CA (human) (UniProt P42336)"}, "[36]": {"target": "PRKAA1 (human) (UniProt Q13131)"}, "[37]": {"target": "PRKACB (human) (UniProt P22694)"}, "[38]": {"target": "RPS6KA2 KD1 (human) (UniProt Q15349)"}, "[39]": {"target": "TLK2 (human) (UniProt Q86UE8)", "sequence (Q86UE8 whole entry, looked up)": "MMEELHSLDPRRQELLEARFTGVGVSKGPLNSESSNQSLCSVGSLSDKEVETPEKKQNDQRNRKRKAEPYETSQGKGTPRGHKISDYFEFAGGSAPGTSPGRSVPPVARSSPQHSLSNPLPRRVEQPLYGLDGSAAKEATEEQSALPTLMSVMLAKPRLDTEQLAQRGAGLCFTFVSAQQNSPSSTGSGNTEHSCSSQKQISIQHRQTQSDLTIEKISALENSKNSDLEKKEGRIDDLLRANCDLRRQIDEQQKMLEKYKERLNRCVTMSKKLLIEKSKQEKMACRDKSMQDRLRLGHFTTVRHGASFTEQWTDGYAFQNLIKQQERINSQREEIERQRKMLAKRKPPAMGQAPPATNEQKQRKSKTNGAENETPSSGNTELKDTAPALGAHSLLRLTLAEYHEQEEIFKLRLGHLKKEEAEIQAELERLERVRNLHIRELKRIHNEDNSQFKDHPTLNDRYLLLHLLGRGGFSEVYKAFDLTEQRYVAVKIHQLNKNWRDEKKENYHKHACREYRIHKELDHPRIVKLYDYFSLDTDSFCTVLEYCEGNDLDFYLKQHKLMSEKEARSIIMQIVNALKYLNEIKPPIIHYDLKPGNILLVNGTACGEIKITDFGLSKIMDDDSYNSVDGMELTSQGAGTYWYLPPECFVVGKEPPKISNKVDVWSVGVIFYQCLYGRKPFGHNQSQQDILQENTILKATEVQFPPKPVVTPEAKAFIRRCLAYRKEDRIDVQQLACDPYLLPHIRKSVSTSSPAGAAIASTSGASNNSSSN"}, "[40]": {"target": "TSSK1B (human) (UniProt Q9BXA7)"}, "[41]": {"target": "WEE2 (human) (UniProt P0C1S8)"}, "[42]": {"target": "YES1 (human) (UniProt P07947)", "sequence (P07947 whole entry, looked up)": "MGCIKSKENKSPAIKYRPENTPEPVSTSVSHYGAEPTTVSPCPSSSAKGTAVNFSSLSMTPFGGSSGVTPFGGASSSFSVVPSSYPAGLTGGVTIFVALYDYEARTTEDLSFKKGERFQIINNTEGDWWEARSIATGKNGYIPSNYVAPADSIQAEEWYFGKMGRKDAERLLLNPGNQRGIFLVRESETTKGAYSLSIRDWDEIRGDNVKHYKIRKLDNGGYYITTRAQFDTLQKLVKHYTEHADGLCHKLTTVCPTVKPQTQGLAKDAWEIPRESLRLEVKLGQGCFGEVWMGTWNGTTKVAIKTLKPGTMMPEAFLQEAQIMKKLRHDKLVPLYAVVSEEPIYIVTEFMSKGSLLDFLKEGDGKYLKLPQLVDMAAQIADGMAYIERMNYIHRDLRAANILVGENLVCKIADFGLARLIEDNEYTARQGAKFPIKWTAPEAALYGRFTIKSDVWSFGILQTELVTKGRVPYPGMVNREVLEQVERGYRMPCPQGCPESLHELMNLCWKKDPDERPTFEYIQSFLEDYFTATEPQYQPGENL"}},
  "data": [
    {"smiles": "COc1cc(N2CCN(C)CC2)ccc1Nc1ncc2c(n1)N(C)c1sccc1C(=O)N2C", "values": [
      {"measurement": "kinase still bound, per cent of control", "setting": "[1]", "result": 82, "unit": "%"},
      {"measurement": "kinase still bound, per cent of control", "setting": "[2]", "result": 78, "unit": "%"},
      {"measurement": "kinase still bound, per cent of control", "setting": "[3]", "result": 75, "unit": "%"},
      {"measurement": "kinase still bound, per cent of control", "setting": "[4]", "result": 57, "unit": "%"},
      {"measurement": "kinase still bound, per cent of control", "setting": "[5]", "result": 98, "unit": "%"},
      {"measurement": "kinase still bound, per cent of control", "setting": "[6]", "result": 95, "unit": "%"},
      {"measurement": "kinase still bound, per cent of control", "setting": "[7]", "result": 76, "unit": "%"},
      {"measurement": "kinase still bound, per cent of control", "setting": "[8]", "result": 87, "unit": "%"},
      {"measurement": "kinase still bound, per cent of control", "setting": "[9]", "result": 91, "unit": "%"},
      {"measurement": "kinase still bound, per cent of control", "setting": "[10]", "result": 78, "unit": "%"},
      {"measurement": "kinase still bound, per cent of control", "setting": "[11]", "result": 46, "unit": "%"},
      {"measurement": "kinase still bound, per cent of control", "setting": "[12]", "result": 87, "unit": "%"},
      {"measurement": "kinase still bound, per cent of control", "setting": "[13]", "result": 80, "unit": "%"},
      {"measurement": "kinase still bound, per cent of control", "setting": "[14]", "result": 97, "unit": "%"},
      {"measurement": "kinase still bound, per cent of control", "setting": "[15]", "result": 100, "unit": "%"},
      {"measurement": "kinase still bound, per cent of control", "setting": "[16]", "result": 36, "unit": "%"},
      {"measurement": "kinase still bound, per cent of control", "setting": "[17]", "result": 81, "unit": "%"},
      {"measurement": "kinase still bound, per cent of control", "setting": "[18]", "result": 97, "unit": "%"},
      {"measurement": "kinase still bound, per cent of control", "setting": "[19]", "result": 77, "unit": "%"},
      {"measurement": "kinase still bound, per cent of control", "setting": "[20]", "result": 97, "unit": "%"},
      {"measurement": "kinase still bound, per cent of control", "setting": "[21]", "result": 100, "unit": "%"},
      {"measurement": "kinase still bound, per cent of control", "setting": "[22]", "result": 86, "unit": "%"},
      {"measurement": "kinase still bound, per cent of control", "setting": "[23]", "result": 89, "unit": "%"},
      {"measurement": "kinase still bound, per cent of control", "setting": "[24]", "result": 64, "unit": "%"},
      {"measurement": "kinase still bound, per cent of control", "setting": "[25]", "result": 91, "unit": "%"},
      {"measurement": "kinase still bound, per cent of control", "setting": "[26]", "result": 52, "unit": "%"},
      {"measurement": "kinase still bound, per cent of control", "setting": "[27]", "result": 77, "unit": "%"},
      {"measurement": "kinase still bound, per cent of control", "setting": "[28]", "result": 94, "unit": "%"},
      {"measurement": "kinase still bound, per cent of control", "setting": "[29]", "result": 93, "unit": "%"},
      {"measurement": "kinase still bound, per cent of control", "setting": "[30]", "result": 94, "unit": "%"},
      {"measurement": "kinase still bound, per cent of control", "setting": "[31]", "result": 68, "unit": "%"},
      {"measurement": "kinase still bound, per cent of control", "setting": "[32]", "result": 81, "unit": "%"},
      {"measurement": "kinase still bound, per cent of control", "setting": "[33]", "result": 71, "unit": "%"},
      {"measurement": "kinase still bound, per cent of control", "setting": "[34]", "result": 84, "unit": "%"},
      {"measurement": "kinase still bound, per cent of control", "setting": "[35]", "result": 97, "unit": "%"},
      {"measurement": "kinase still bound, per cent of control", "setting": "[36]", "result": 99, "unit": "%"},
      {"measurement": "kinase still bound, per cent of control", "setting": "[37]", "result": 100, "unit": "%"},
      {"measurement": "kinase still bound, per cent of control", "setting": "[38]", "result": 82, "unit": "%"},
      {"measurement": "kinase still bound, per cent of control", "setting": "[39]", "result": 93, "unit": "%"},
      {"measurement": "kinase still bound, per cent of control", "setting": "[40]", "result": 38, "unit": "%"},
      {"measurement": "kinase still bound, per cent of control", "setting": "[41]", "result": 94, "unit": "%"},
      {"measurement": "kinase still bound, per cent of control", "setting": "[42]", "result": 87, "unit": "%"}
    ]}
  ]
}
